Measurements as given in patent US20170327556A1, “CARTILAGE-BINDING FUSION PROTEINS” (Merrimack Pharmaceuticals, Inc., priority 2013, published 2017).
Entries after “also recorded” stand apart in the source; their conditions may differ.

These substances were tested on bovine cartilage explants (assay: In vitro joint disease model (IL-1), explanted bovine cartilage: ^35S-sulfate incorporation). Conditions: supplied in every medium change for 8 or 12 days, IL-1, final 48 hrs, versus Disease control.
Type: cell-based
Source text: Bovine cartilage explants (3 mm diameter, 1.2 mm thick) are harvested from the femoral patellar groove of 2-4 week old bovine calves. Knee joints are mounted by removing all tissue surrounding the femur, removing the femoral head with a bone saw or hack saw, and clamping in a tissue vice. Joints are aseptically opened, removing the patella, tibia and fibula. Using a 3 mm diameter disposable biopsy punch, approximately 80×3 mm diameter full thickness cartilage cores are punched from the femoral-patellar groove. A sterile knife is used to slice the cores at the cartilage-bone interface. Cores are then inserted into 3 mm diameter holes in a 1.2 mm thick sterile stainless steel plate and sliced flush with the plate using sterile razor blades to remove the excess core length, resulting in 3 mm diameter, 1.2 mm thick cartilage explants with the superficial zone cartilage intact.
Explants are cultured in 96-well plates in 300 μL of medium consisting of low glucose DMEM (1× Gibco 11885-084), Penicillin-Streptomycin (1×, Gibco 15140-122), ascorbic acid (20 μg/mL, Sigma A4403), proline (400 μM, Sigma P5607-256), non-essential amino acids (1×, Sigma M7145), and HEPES (100 mM, Gibco 15630-080). Explants from three animals (n=2-3 per animal) are used in each treatment condition for a total explant number of 8-9 per condition. Medium is changed every 2 days. On days 6 and 10, the medium is supplemented with 5 μCi/mL of ^35S-sodium sulfate (Perkin Elmer NEX041H001MC, 1 mCi).
Timepoints are taken at day 8 and 12: explant tissue is washed four times for 30 min each (2 hr total) in 1 mM unlabeled sodium sulfate in PBS. Each explant is weighed wet and frozen at −20° C. until digestion. Tissue digestion was performed with Proteinase K (Roche cat #3115879001) and each explant is digested in 1 mL 100 μg/mL Proteinase K in 50 mM Tris-HCL, 1 mM Calcium Chloride pH=8.0 buffer at 60° C. overnight. Measurement of sGAG content and DNA content is performed using standard assay methods such as those described in Hoemann, 2004, Methods in Molecular Medicine: Cartilage and Osteoarthritis. Totowa, N.J.: Humana Press Inc.; p. 127-52. ^35S-sulfate content of the digested cartilage explants was quantified by mixing 20 μL of digest with 250 μL of scintillation fluid (Perkin Elmer cat #1200-439) and counting with a WALLAC 1450 MICROBETA TRILUX scintillation counter.
Treatments were given at the following concentrations: wtIGF-1 13.3 nM=100 ng/mL (IGF-1 R&D systems 291-G1); GF-Fus1 (6x-Histidine tagged) 13.3 nM=135 ng/mL; GF-Fus2 (6x-Histidine tagged) 13.3 nM=140 ng/mL; and GF-Fus3 (6x-Histidine tagged)13.3 nM=181 ng/mL. All treatments included IL-1 and were given for either 4 days or the entire culture duration. The outcomes measured were ^35S-sulfate incorporation, DNA content, and sGAG content of plug at endpoint, and sGAG released to media for all media changes. Controls were either no treatment (Healthy) or IL-1 alone at 1 ng/mL (Disease).
FIG. 4 depicts a graph of cartilage matrix loss as measured by the cumulative percentage of total sGAG lost to the culture medium against time (days). Percentage loss is calculated by dividing the cumulative sGAG in the culture medium by the total sGAG present in the medium over the culture period plus the sGAG remaining in the explant at the end of culture. Cartilage matrix loss was reduced by each IGF fusion protein relative to the disease control at a level similar to wild-type IGF. New cartilage matrix synthesis (i.e. sulfated proteoglycan synthesis is measured by ^35S-Sulfate incorporation) during the final 48 hrs of cultures terminated at day 8 and day 12 is shown in FIGS. 5A and 5B, respectively. Cartilage matrix synthesis was increased compared to disease control by all fusion proteins (GF-Fus1, GF-Fus2, and GF-Fus3) and wild-type IGF when the fusion proteins were supplied in every medium change for the entire culture duration of 8 and 12 days (black bars). […]
For “GF-Fus6: IGF-1(LR3) fused to CNA344 CB domain”, the “cartilage matrix synthesis (^35S-sulfate incorporation)” value was “increase”.
For “wtIGF: Wild-type IGF-1 (R&D systems 291-G1), control [reference compound]”, the “cartilage matrix synthesis (^35S-sulfate incorporation)” value was “increased”.
“GF-Fus1: IGF-1 variant polypeptide Long [R^3]-IGF-1, no fused binding domain; used 6x-Histidine-tagged as control [reference compound]” was tested, and the “cartilage matrix synthesis (^35S-sulfate incorporation)” value was “increase; also recorded: stimulated cartilage matrix biosynthesis”.
For “GF-Fus5: IGF-1(LR3) fused to CNA35 CB domain”, the “cartilage matrix synthesis (^35S-sulfate incorporation)” value was “increase”.
“GF-Fus3: C-terminal fusion IGF-1(LR3)-PRELP heparin binding domain” was tested, and the “cartilage matrix synthesis (^35S-sulfate incorporation)” value was “increase; also recorded: stimulated cartilage matrix biosynthesis”.

Same assay, conditions: treatment day 0-4 only, measured at day 8 and day 12, IL-1
In the case of “GF-Fus3: C-terminal fusion IGF-1(LR3)-PRELP heparin binding domain”, the “cartilage matrix synthesis (^35S-sulfate incorporation) after fusion protein removal” value was “highest; also recorded: increased proteoglycan biosynthesis by an equivalent amount; also recorded: largest increase”.
